Where a SMILES comes first, the peptide text is derived from it.
Experiments:
Format in all cases: cell-based
CR3 = assay: Assay 3: upregulation of integrins (CR3) on the surface of a neutrophil, detected with EC3bi (FIG. 5); conditions: for # of cells ASSAY 3: peptide at 1 mg/ml, upregulation of integrins on neutrophil; for ability to upregulate integrins on leukocytes, assay 3 (in words): peptides of Table 2
Procedure: EC3bi is an erythrocyte coated with the complement component C3bi and is used to detect the presence of CR3 on the surface of a leukocyte according to the procedure of Wright et al (supra).
The test was conducted with separate proteins in tissue culture as in the experiment described in connection with the previous figure.
Assay 3 measures upregulation of integrins on the surface of a neutorphil as described in FIG. 5. Values ±50% are significant.

ELAM = assay: Assay 1: inhibition of adherence of neutrophils to ELAM-coated surfaces (FIG. 4); conditions: for % of inhibition ASSAY 1: peptide at 1 mg/ml, neutrophils on ELAM-coated surfaces
Procedure: In the study, the proteins PT, B-oligomer, S2, S3, S2/S3 and S3/S2 were taken up in an isotonic buffered tissue culture medium to a concentration of 50 ug/ml and the ability of each of them to inhibit adhesion of neutrophils to ELAM or GMP140 was determined as described by Wright et al J. Exp. Med. 158:2016 (1983). The buffer was employed as the control and each protein studied was compared to the control for the ability to decrease adhesion capacity.
Assay 1 is inhibition of adherence of enutrophils to ELAM-coated surfaces as described in connection with FIG. 4. Values ±20% inhibition are significant.

endothelial cells = assay: Assay 2: inhibition of adherence of a neutrophil to a monolayer of endothelial cells; conditions: peptide at 1 mg/ml; for % of inhibition ASSAY 2: neutrophil on monolayer of endothelial cells; for activity in Assays 1 or 2 (in words): adherence of leukocytes to selectins or endothelial cells bearing selectins
From the text: Assay 2 is inhibition of adherence of a neutrophil to a monolayer of endothelial cells as described by Lo et al J. Exp. Med. 173:1493-1500 (1991). Values ±50% inhibition are significant.

CC(C)C[C@H](NC(=O)[C@H](CC(=O)O)NC(=O)CN)C(=O)N[C@@H](CCC(N)=O)C(=O)N[C@@H](CCC(=O)O)C(=O)N[C@@H](Cc1ccc(O)cc1)C(=O)N[C@@H](CC(C)C)C(=O)N[C@@H](CCCNC(=N)N)C(=O)N[C@@H](Cc1c[nH]cn1)C(=O)N[C@H](C(=O)N[C@H](C(=O)N[C@@H](CCCNC(=N)N)C(=O)NCC(=O)N[C@@H](Cc1c[nH]c2ccccc12)C(=O)N[C@@H](CO)C(=O)O)[C@@H](C)O)C(C)C [SEQ ID NO:35, GDLQEYLRHVTRGWS]
# of cells ASSAY 3 (CR3): 104 # of cells | % of inhibition ASSAY 1 (ELAM): 0-14%

S3 with deletion 1: S3 protein from which the VA or YL region of the motif was deleted (TRALTRGNAELQTYLRQITP)
inhibition of neutrophil/leukocyte adherence to ELAM (ELAM; protein at 50 ug/ml, compared to buffer control): 16%

CC[C@H](C)[C@H](NC(=O)[C@H](C)NC(=O)[C@@H](NC(=O)[C@H](CC(C)C)NC(=O)[C@@H](N)[C@@H](C)O)C(C)C)C(=O)N[C@@H](CCC(N)=O)C(=O)N[C@@H](CC(N)=O)C(=O)N[C@@H](CCCCN)C(=O)N[C@@H](CCC(=O)O)C(=O)N[C@@H](CCC(=O)O)C(=O)N[C@H](C(=O)N[C@@H](CCC(=O)O)C(=O)N[C@@H](Cc1ccc(O)cc1)C(=O)N[C@@H](CC(C)C)C(=O)O)[C@@H](C)CC [SEQ ID NO:30, TLVAIQNKEEIEYL] (H-TLVAIQNKEEIEYL-OH)
% of inhibition ASSAY 2 (endothelial cells): 80% | # of cells ASSAY 3 (CR3): 243 # of cells | ability to upregulate integrins on leukocytes, assay 3 (in words) (CR3): ability to upregulate integrins on leukocytes

CC(C)C[C@H](NC(=O)[C@H](Cc1ccc(O)cc1)NC(=O)[C@H](CCC(=O)O)NC(=O)[C@H](CCC(N)=O)NC(=O)[C@H](CC(C)C)NC(=O)[C@H](CC(=O)O)NC(=O)CNC(=O)[C@H](CO)NC(=O)CNC(=O)[C@H](CC(C)C)NC(=O)[C@H](CCC(=O)O)NC(=O)[C@H](C)NC(=O)[C@@H](NC(=O)[C@@H](NC(=O)[C@H](CC(C)C)NC(=O)[C@H](C)N)[C@@H](C)O)C(C)C)C(=O)O [SEQ ID NO:36, ALTVAELGSGDLQEYL] (H-ALTVAELGSGDLQEYL-OH)
activity in Assays 1 or 2 (in words) (endothelial cells): active | % of inhibition ASSAY 2 (endothelial cells): 80% | # of cells ASSAY 3 (CR3): 232 # of cells | ability to upregulate integrins on leukocytes, assay 3 (in words) (CR3): ability to upregulate integrins on leukocytes

CC[C@H](C)[C@H](NC(=O)[C@H](C)NC(=O)[C@@H](N)C(C)C)C(=O)N[C@@H](CCC(N)=O)C(=O)N[C@@H](CC(N)=O)C(=O)N[C@@H](CCCCN)C(=O)N[C@@H](C)C(=O)N[C@@H](CCC(=O)O)C(=O)N[C@H](C(=O)N[C@@H](CCC(=O)O)C(=O)N[C@@H](Cc1ccc(O)cc1)C(=O)N[C@@H](CC(C)C)C(=O)N[C@@H](CCC(=O)O)C(=O)N[C@@H](CCCCN)C(=O)N[C@H](C(=O)N[C@@H](CC(C)C)C(=O)N1CCC[C@H]1C(=O)N[C@@H](Cc1ccccc1)C(=O)N[C@@H](CO)C(=O)O)[C@@H](C)O)[C@@H](C)CC [SEQ ID NO:31, VAIQNKAEIEYLEKTLPFS] (H-VAIQNKAEIEYLEKTLPFS-OH)
# of cells ASSAY 3 (CR3): 163 # of cells | ability to upregulate integrins on leukocytes, assay 3 (in words) (CR3): ability to upregulate integrins on leukocytes | % of inhibition ASSAY 1 (ELAM): 23-31%

CC[C@H](C)[C@H](NC(=O)[C@H](C)NC(=O)[C@@H](N)C(C)C)C(=O)N[C@@H](CCC(N)=O)C(=O)N[C@@H](CC(N)=O)C(=O)N[C@@H](CCCCN)C(=O)N[C@@H](CCC(=O)O)C(=O)N[C@@H](CCC(=O)O)C(=O)N[C@H](C(=O)N[C@@H](CCC(=O)O)C(=O)N[C@@H](Cc1ccc(O)cc1)C(=O)N[C@@H](CC(C)C)C(=O)N[C@@H](CC(N)=O)C(=O)N[C@@H](CO)C(=O)N[C@H](C(=O)N[C@@H](CC(C)C)C(=O)N[C@@H](CO)C(=O)N[C@@H](Cc1ccc(O)cc1)C(=O)N[C@@H](CO)C(=O)O)[C@@H](C)CC)[C@@H](C)CC [SEQ ID NO:15, VAIQNKEEIEYLNSILSYS] (H-VAIQNKEEIEYLNSILSYS-OH)
# of cells ASSAY 3 (CR3): 71 # of cells | ability to upregulate integrins on leukocytes, assay 3 (in words) (CR3): ability to upregulate integrins on leukocytes | % of inhibition ASSAY 1 (ELAM): 22-52%

CC[C@H](C)[C@H](NC(=O)[C@H](CO)NC(=O)[C@H](CC(N)=O)NC(=O)[C@H](CC(C)C)NC(=O)[C@H](Cc1ccc(O)cc1)NC(=O)[C@H](CCC(=O)O)NC(=O)[C@@H](NC(=O)[C@H](CCC(=O)O)NC(=O)[C@H](CCC(=O)O)NC(=O)[C@@H](N)CCCCN)[C@@H](C)CC)C(=O)N[C@@H](CC(C)C)C(=O)N[C@@H](CO)C(=O)N[C@@H](Cc1ccc(O)cc1)C(=O)N[C@@H](CO)C(=O)O [SEQ ID NO:29, KEEIEYLNSILSYS] (H-KEEIEYLNSILSYS-OH)
# of cells ASSAY 3 (CR3): 73 # of cells | % of inhibition ASSAY 1 (ELAM): 0-2%

CC(C)C[C@H](NC(=O)[C@H](Cc1ccc(O)cc1)NC(=O)[C@@H](NC(=O)[C@H](CCC(N)=O)NC(=O)[C@H](CC(C)C)NC(=O)[C@H](CCC(=O)O)NC(=O)[C@H](C)NC(=O)[C@H](CC(N)=O)NC(=O)CNC(=O)[C@H](CC(C)C)NC(=O)[C@H](CCC(=O)O)NC(=O)[C@H](C)NC(=O)[C@@H](NC(=O)[C@@H](NC(=O)[C@H](CC(C)C)NC(=O)[C@H](C)N)[C@@H](C)O)C(C)C)[C@@H](C)O)C(=O)O [SEQ ID NO:26, ALTVAELGNAELQTYL] (H-ALTVAELGNAELQTYL-OH)
activity in Assays 1 or 2 (in words) (endothelial cells): active | ability to upregulate integrins on leukocytes, assay 3 (in words) (CR3): ability to upregulate integrins on leukocytes

CC[C@H](C)[C@H](NC(=O)[C@H](C)NC(=O)[C@@H](N)C(C)C)C(=O)N[C@@H](CCC(N)=O)C(=O)N[C@@H](CC(N)=O)C(=O)N[C@@H](CCCCN)C(=O)N[C@@H](CC(N)=O)C(=O)N[C@@H](CCC(=O)O)C(=O)N[C@H](C(=O)N[C@@H](CC(=O)O)C(=O)N[C@@H](Cc1ccc(O)cc1)C(=O)N[C@@H](CC(C)C)C(=O)N[C@@H](CC(N)=O)C(=O)N[C@@H](CCCCN)C(=O)N[C@H](C(=O)N[C@@H](CC(C)C)C(=O)N1CCC[C@H]1C(=O)N[C@@H](Cc1ccc(O)cc1)C(=O)N[C@@H](Cc1ccc(O)cc1)C(=O)N[C@@H](CO)C(=O)O)C(C)C)[C@@H](C)CC [SEQ ID NO:33] (H-VAIQNKNEIDYLNKVLPYYS-OH)
# of cells ASSAY 3 (CR3): 113 # of cells | ability to upregulate integrins on leukocytes, assay 3 (in words) (CR3): ability to upregulate integrins on leukocytes | % of inhibition ASSAY 1 (ELAM): 3-14%

CC[C@H](C)[C@H](NC(=O)[C@H](CCC(N)=O)NC(=O)[C@H](CCCNC(=N)N)NC(=O)[C@H](CC(C)C)NC(=O)[C@H](Cc1ccc(O)cc1)NC(=O)[C@@H](NC(=O)[C@H](CCC(N)=O)NC(=O)[C@H](CC(C)C)NC(=O)[C@H](CCC(=O)O)NC(=O)[C@H](C)N)[C@@H](C)O)C(=O)N[C@H](C(=O)N1CCC[C@H]1C(=O)NCC(=O)N[C@@H](Cc1c[nH]c2ccccc12)C(=O)N[C@@H](CO)C(=O)O)[C@@H](C)O [SEQ ID NO:32, AELQTYLRQITPGWS] (H-AELQTYLRQITPGWS-OH)
# of cells ASSAY 3 (CR3): 122 # of cells | % of inhibition ASSAY 1 (ELAM): 0-18%

CC[C@H](C)[C@H](NC(=O)[C@H](C)NC(=O)[C@@H](NC(=O)[C@H](CC(C)C)NC(=O)[C@H](CC(=O)O)NC(=O)[C@@H](N)[C@@H](C)O)C(C)C)C(=O)N[C@@H](CCC(N)=O)C(=O)N[C@@H](CC(N)=O)C(=O)N[C@@H](CCCCN)C(=O)N[C@@H](C)C(=O)N[C@@H](CCC(=O)O)C(=O)N[C@H](C(=O)N[C@@H](CCC(=O)O)C(=O)N[C@@H](Cc1ccc(O)cc1)C(=O)N[C@@H](CC(C)C)C(=O)O)[C@@H](C)CC [SEQ ID NO:19, TDLVAIQNKAEIEYL] (H-TDLVAIQNKAEIEYL-OH)
% of inhibition ASSAY 2 (endothelial cells): 80% | # of cells ASSAY 3 (CR3): 104 # of cells | ability to upregulate integrins on leukocytes, assay 3 (in words) (CR3): ability to upregulate integrins on leukocytes

CC(C)C[C@H](NC(=O)[C@H](CC(=O)O)NC(=O)CNC(=O)[C@H](CO)NC(=O)CNC(=O)[C@H](CCCNC(=N)N)NC(=O)[C@H](CC(C)C)NC(=O)[C@H](CCC(=O)O)NC(=O)[C@H](C)NC(=O)[C@@H](N)C(C)C)C(=O)N[C@@H](CCC(N)=O)C(=O)N[C@@H](CCC(=O)O)C(=O)N[C@@H](Cc1ccc(O)cc1)C(=O)N[C@@H](CC(C)C)C(=O)N[C@@H](CCCNC(=N)N)C(=O)N[C@@H](Cc1c[nH]cn1)C(=O)N[C@H](C(=O)N[C@H](C(=O)N[C@@H](CCCNC(=N)N)C(=O)NCC(=O)N[C@@H](Cc1c[nH]c2ccccc12)C(=O)N[C@@H](CO)C(=O)O)[C@@H](C)O)C(C)C [SEQ ID NO:34]
# of cells ASSAY 3 (CR3): 18 # of cells | ability to upregulate integrins on leukocytes, assay 3 (in words) (CR3): does not share this property | % of inhibition ASSAY 1 (ELAM): 22-33%
